Non-standard residues stand in square brackets, D forms with d. No end group written: not given here. Aib = CC(C)(N)C(=O)O
Tests used:
[1] = tested on: ADNP^+/− male mice; assay: Morris water maze test; assay type: in vivo, mouse
Procedure: The heterozygous ADNP mice were generated as before (Pinhasov et al., Brain Res. Dev. Brain Res. 2003, 144:83-90; and Vulih-Shultzman et al., J Pharmacol Exp Ther. 2007, 323(2):438-49). To avoid any variability in results associated with the estrous cycle in females, only ADNP^+/− male mice are use for behavioral experiments.
Iso-NAP (NAXaaVSIXaaQ; SEQ ID NO:1) was dissolved in a vehicle solution, in which each milliliter included 7.5 mg of NaCl, 1.7 mg of citric acid monohydrate, 3 mg of disodium phosphate dihydrate, and 0.2 mg of benzalkonium chloride solution (50%). Iso-NAP or vehicle solution (DD) was administered to mice handheld in a semi-supine position with nostrils facing the investigator. A pipette tip was used to administer 2.5 μl/each nostril. The mouse was handheld until the solution is entirely absorbed. Nasal Iso-NAP application was performed daily, once a day, for 2 weeks for the Morris water maze test. In the 2nd week, Iso-NAP was applied 1 h before the daily test (see below), which was conducted for 5 consecutive days. In the passive avoidance test, all mice were treated for a total of 7 days, on the 7th day of treatment the test began. Iso-NAP was applied 1 h before the test.
The mouse is placed in a pool of water that is colored opaque with powdered non-fat milk, where it must swim to a hidden escape platform. The position of the platform is altered between days but remains constant within each day. Because it is in opaque water, the mouse cannot see the platform, and cannot rely on scent to find the escape route. As the mouse becomes more familiar with the task, it is able to find the platform more quickly.
Pool diameter—140 cm, Platform—clear plaxiglass, 12 cm in diameter, 2 cm below the surface of the water, Water temperature—22-23° C., Room temperature—26-28° C.
Mice are treated with Iso-NAP/vehicle and then habituated for 1 hour in the experimental room. […] The time requires to reach the platform in each trial is measured. […]

[2] = tested on: cerebral cortical cultures derived from newborn rats; assay: Neuronal survival in cerebral cortical cultures treated with beta-amyloid peptide (1-42); assay type: cell-based, rat; conditions: for protection of neurons against neurotoxicity of beta-amyloid peptide 1-42 (neuronal cell numbers): 2.5 μM beta-amyloid peptide (1-42), peptide 10^−16M to 10^−10M, p<0.001, FIG. 1; for neuroprotective activity compared with unmodified NAP: FIG. 1 compared with FIG. 2, 2.5 micromolar beta amyloid peptide
Procedure: All peptides were dissolved in distilled sterile water to a concentration of 1 mM and then diluted in water in 1:10 steps up to the required concentration. The beta-amyloid peptide (1-42) was obtained from American Peptides, Calif., USA.
Cerebral cortical cultures derived from newborn rats were used for neuron survival assays. For mixed neuroglial cultures, neurons 300,000 cells/35 mm dish were seeded on 8-day-old astrocytes prepared as described (Bassan et al., supra (1999); Brenneman et al., supra (2004)). Cells were allowed to grow for one week at 37° C. 10% CO2 before experiments were performed. Four days after neuronal plating, cultures were given their respective treatment and assayed for neuronal survival after an additional 5 day incubation period.
The culture medium was removed and cells were washed twice with phosphate buffered saline (PBS). 1.5 ml of 3% glutaraldehyde (Fluka Biochemika, Steinheim, Germany) in 0.1 M cacodylic acid pH 7.2 (Fluka Biochemika, Steinheim, Germany) was added for two hours. The cells were then washed with PBS and 2 ml of 0.15 M cacodylic acid pH 7.2 was added. Neuronal identity was established by morphological criteria using an Olympus CK2 light microscope (Olympus, Japan) with a X40 lens. Fifty fields were counted in each dish (Zemlyak et al., supra (2000)).
The number of surviving neurons was assessed in cerebral cortical cultures derived from newborn rats using the beta-amyloid peptide (1-42), an Alzheimer's disease-associated toxin, at 2.5 μM. Alpha-aminoisobutric NAP was used at the following concentrations: 10^−16M, 10^−15M, 10^−12M, 10^−10M. […] Cell counts totaled>100% of control, because the treatment prevents neuronal cell death that occurred naturally in the cultures (10-20%), as observed before (Bassan et al., supra (1999)). […] This is an unexpected finding in view of previous reports that describe the SIP motif as essential for NAP neuroprotection (Wilkemeyer et al., Proc Natl Acad Sci USA, 100(14):8543-8 (2003)).

[3] = listed as Alpha-aminoisobutric NAP

NAXaaVSIXaaQ (NA[Aib]VSI[Aib]Q) [Alpha-aminoisobutyric NAP, both prolines of NAP substituted]
Morris water maze performance (working memory) vs vehicle controls ([1]; 2 μg/5 μl/mouse/day intranasal, third day of testing, P<0.05): performed better than controls | Morris water maze performance (working memory) vs vehicle controls ([1]; 30 μg/5 μl/mouse/day intranasal, day 2 P<0.05, day 3 P<0.07, listed as Iso-NAP): better than control on testing days 2 and 3 | Morris water maze performance (working memory) vs vehicle controls ([1]; 30 μg/5 μl/mouse/day intranasal, day 2 P<0.05, day 3 P<0.07, listed as IsoNAP): seems to affect the spatial memory | cell counts ([2]; 2.5 μM beta-amyloid peptide (1-42) plus peptide): > 100 % of control | protection of neurons against neurotoxicity of beta-amyloid peptide 1-42 (neuronal cell numbers) [2, 3]: protected against neurotoxicity associated with the beta-amyloid peptide 1-42 | protection of neurons against neurotoxicity of beta-amyloid peptide 1-42 (neuronal cell numbers) ([2]; listed as alpha-aminoisobutric NAP): confers protection of neurons | neuroprotective activity compared with unmodified NAP [2]: increased neuroprotective activity | neuroprotective activity compared with unmodified NAP [2, 3]: increased activity
